Assay results from ChEMBL document CHEMBL1146911, “Synthesis and SAR of conformationally restricted inhibitors of soluble epoxide hydrolase” (Bioorg Med Chem Lett, 2006).

Key:
[1] = target: T1, Bifunctional epoxide hydrolase 2 (Homo sapiens, UniProt P34913)
T1 sequence (P34913 whole entry): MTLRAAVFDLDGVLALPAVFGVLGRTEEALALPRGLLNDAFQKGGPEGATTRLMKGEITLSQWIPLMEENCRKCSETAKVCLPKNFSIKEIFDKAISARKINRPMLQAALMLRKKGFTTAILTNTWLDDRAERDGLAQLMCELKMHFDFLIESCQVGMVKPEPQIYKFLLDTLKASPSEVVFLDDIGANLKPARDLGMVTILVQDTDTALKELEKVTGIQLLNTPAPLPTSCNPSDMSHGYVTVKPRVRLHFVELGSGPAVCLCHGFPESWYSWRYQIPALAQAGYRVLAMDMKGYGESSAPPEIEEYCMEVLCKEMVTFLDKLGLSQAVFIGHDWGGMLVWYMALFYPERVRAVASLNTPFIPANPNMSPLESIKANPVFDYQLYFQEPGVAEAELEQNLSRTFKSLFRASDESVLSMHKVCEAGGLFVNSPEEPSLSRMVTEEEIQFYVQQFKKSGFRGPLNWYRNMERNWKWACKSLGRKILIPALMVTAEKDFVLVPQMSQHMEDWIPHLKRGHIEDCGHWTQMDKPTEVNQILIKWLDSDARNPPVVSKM

[2] = AUC in dog at 0.3 mg/kg, po; type: ADME, organism-based, Canis lupus familiaris; parameters: dose 0.3 mg/kg, route oral; conditions: plasma

Compound | IC50 [1] | AUC [2]
CCC(=O)N1CCC(NC(=O)NC23CC4CC(CC(C4)C2)C3)CC1 |  | 0.108 µM·h
CC(=O)N1CCC(CNC(=O)NC23CC4CC(CC(C4)C2)C3)CC1 |  | 0.0917 µM·h
O=C(NCC1CCN(C(=O)c2ccncc2)CC1)NC12CC3CC(CC(C3)C1)C2 | 7.3 nM | 
CCCC(=O)N1CCC(NC(=O)NC23CC4CC(CC(C4)C2)C3)CC1 |  | 0.0417 µM·h
O=C(NC1CCN(C(=O)c2ccccn2)CC1)NC12CC3CC(CC(C3)C1)C2 |  | 0.0783 µM·h
O=C(O)CCCCCCCCCCCNC(=O)NC12CC3CC(CC(C3)C1)C2 |  | 0.0517 µM·h
O=C(NC1CCN(C(=O)c2ccccc2)CC1)NC12CC3CC(CC(C3)C1)C2 |  | 0.0102 µM·h
O=C(NC1CCN(C(=O)C(F)(F)F)CC1)NC12CC3CC(CC(C3)C1)C2 |  | 0.055 µM·h
O=C(NCC1CCN(C(=O)c2cccnc2)CC1)NC12CC3CC(CC(C3)C1)C2 | 5.4 nM | 
O=C(NCC1CCN(C(=O)c2cccc(C(=O)O)c2)CC1)NC12CC3CC(CC(C3)C1)C2 | 43 nM | 
CC(=O)N1CCC(NC(=O)NC23CC4CC(CC(C4)C2)C3)CC1 [AR9281] |  | 0.617 µM·h

Results, then the compound that gave them:

IC50 [1] | AUC [2] | Compound
1.7 nM |  | O=C(NC1CCN(C(=O)c2cccnc2)CC1)NC12CC3CC(CC(C3)C1)C2
2.1 nM |  | O=C(NC1CCN(C(=O)c2ccncc2)CC1)NC12CC3CC(CC(C3)C1)C2
400 nM |  | O=C(NCC1CCN(C(=O)c2ccccc2C(=O)O)CC1)NC12CC3CC(CC(C3)C1)C2
 | 0.0055 µM·h | O=C(NCC1CCN(C(=O)c2ccccc2)CC1)NC12CC3CC(CC(C3)C1)C2
41 nM |  | O=C(O)CCCC(=O)N1CCC(CNC(=O)NC23CC4CC(CC(C4)C2)C3)CC1
